What was measured:
[1] = Safety and tolerability of repeated doses 5-30 mg (Example 2); assay type: in vivo, human
Source text: Safety and tolerability of VB-201 was judged by evaluating the incidence of abnormal findings in the following measurements: vital signs: systolic and diastolic blood pressure, heart rate, respiratory rate, body temperature; physical examination; 12-lead electrocardiogram; laboratory tests of blood samples for: complete blood count, prothrombin time/partial thromboplastin time, LDL- and HDL-cholesterol, total cholesterol, triglycerides, glucose, blood urea nitrogen, sodium, potassium, creatinine, calcium, phosphorus, creatinine phosphokinase, lactate dehydrogenase, aspartate transaminase, alanine transaminase, γ-glutamyl transferase, alkaline phosphatase, protein, albumin, total bilirubin, total IgM and IgG antibodies, interleukin-12/23 p40, tumor necrosis factor-α, and interleukin-6, as well as routine urinalysis; and all adverse events, whether or not considered serious, and whether or not considered related to the investigational agent, according to the criteria for Good Clinical Practice. Treatment-emergent adverse events were defined as any adverse event that started on or after administration of the first dose of VB-201, and no more than 30 days after administration of the last dose, or are ongoing at the time of the first dose and worsened in severity or frequency during treatment. […] The subjects were all healthy volunteers. […] 10 subjects received a placebo. […]

[2] = Repeated daily dose pharmacokinetics, 40 and 80 mg (Example 4); assay type: in vivo, human
Procedure: Determination of VB-201 concentrations in plasma was performed using an HPLC-MS/MS (high performance liquid chromatography with tandem mass spectrometric detection) assay. Calibration was for a range of from 5 to 500 ng/ml for low doses and from 50 to 5000 ng/ml for high doses. Pharmacokinetic parameters were estimated by using a non-compartmental method, except for the AUC (area under curve), which was determined using a (log-) trapezoidal rule as the area above the previous trough level. […] The subjects were all healthy volunteers. […] 6 subjects received a placebo. The VB-201 was formulated in non-enterocoated capsules. Blood was collected for pharmacokinetic evaluation on day 1 (40 mg cohort) and on day 14 (40 and 80 mg cohorts).

[3] = Pharmacokinetics of VB-201 in human subjects, summary over the studies; assay type: in vivo
Procedure: Determination of VB-201 concentrations in plasma was performed using an HPLC-MS/MS (high performance liquid chromatography with tandem mass spectrometric detection) assay. Calibration was for a range of from 5 to 500 ng/ml for low doses and from 50 to 5000 ng/ml for high doses. Pharmacokinetic parameters were estimated by using a non-compartmental method, except for the AUC (area under curve), which was determined using a (log-) trapezoidal rule as the area above the previous trough level. All calculations were made using PKWizard (developed by Russell Barbare and Dr. […] was validated against WinNonlin (Pharsight Corp.), which is an FDA-recognized validated program. Pharmacokinetic parameters were calculated by the program according to standard methods used in the art. Calculation of the pharmacokinetic characteristics was based on the actual blood sampling time (in hours), with predose times set to zero. Concentrations below the LLOQ (lower limit of quantification; 4.974 ng/ml) were assumed to be zero.

Structure (SMILES): CCCCCCCCCCCCCCCCOCC(COP(=O)([O-])OCC[N+](C)(C)C)OCCCCC(=O)O (stereo not drawn) [VB-201, 1-hexadecyl-2-(4′-carboxybutyl)-glycerol-3-phosphocholine]
- serious or severe adverse events ([1]; daily 5-30 mg, 14 days): No serious or severe adverse events occurred
- safety and tolerability ([1]; orally for 14 days at daily doses 5 mg to 30 mg): as safe and tolerable as placebo
- AUC(0-infinity) ([2]; daily 40 mg, Day 1): 31952 ± 9680 ng·h/mL
- Cl/F (0-24) ([2]; daily 40 mg, Day 1): 2.837 ± 1.064 L/h
- Cl/F(0-infinity) ([2]; daily 40 mg, Day 1): 1.346 ± 0.401 L/h
- Cmax ([2]; daily 40 mg, Day 1): 923.7 ± 287.4 ng/mL
- Ke ([2]; daily 40 mg, Day 1): 0.0305 ± 0.0124 h⁻¹
- MTT (0-24) ([2]; daily 40 mg, Day 1): 12.0 ± 0.5 h
- MTT(0-infinity) ([2]; daily 40 mg, Day 1): 41.3 ± 17.6 h
- T1/2 ([2]; daily 40 mg, Day 1): 26.8 ± 13.0 h
- Tmax ([2]; daily 40 mg, Day 1): 8.7 ± 3.8 h
- AUC(0-24) ([2]; daily 40 mg, Day 14): 47393 ± 16792 ng·h/mL
- AUC(0-infinity) ([2]; daily 40 mg, Day 14): 117013 ± 55816 ng·h/mL
- Cl/F (0-24) ([2]; daily 40 mg, Day 14): 0.970 ± 0.436 L/h
- Cl/F(0-infinity) ([2]; daily 40 mg, Day 14): 0.405 ± 0.172 L/h
- Cmax ([2]; daily 40 mg, Day 14): 2544.6 ± 800.5 ng/mL
- Ke ([2]; daily 40 mg, Day 14): 0.0270 ± 0.0111 h⁻¹
- MTT (0-24) ([2]; daily 40 mg, Day 14): 11.1 ± 0.4 h
- MTT(0-infinity) ([2]; daily 40 mg, Day 14): 45.2 ± 18.8 h
- T1/2 ([2]; daily 40 mg, Day 14): 30.2 ± 13.6 h
- Tmax ([2]; daily 40 mg, Day 14): 4.2 ± 2.0 h
- AUC(0-24) ([2]; daily 80 mg, Day 14): 89779 ± 21751 ng·h/mL
- AUC(0-infinity) ([2]; daily 80 mg, Day 14): 206918 ± 62474 ng·h/mL
- Cl/F (0-24) ([2]; daily 80 mg, Day 14): 0.941 ± 0.247 L/h
- Cl/F(0-infinity) ([2]; daily 80 mg, Day 14): 0.422 ± 0.144 L/h
- Cmax ([2]; daily 80 mg, Day 14): 4820.2 ± 930.3 ng/mL
- Ke ([2]; daily 80 mg, Day 14): 0.0251 ± 0.0048 h⁻¹
- MTT (0-24) ([2]; daily 80 mg, Day 14): 11.0 ± 0.4 h
- MTT(0-infinity) ([2]; daily 80 mg, Day 14): 41.5 ± 7.8 h
- T1/2 ([2]; daily 80 mg, Day 14): 28.5 ± 5.8 h
- Tmax ([2]; daily 80 mg, Day 14): 6.0 ± 1.1 h
- time of peak plasma concentrations after administration ([3]; oral, over the studies): 6 to 11 h
- minimum concentration during a 24-hour period relative to maximum concentration ([3]; regular once-daily administration (FIGS. 2 and 4)): at least 66.7%

Source: patent US20130172294A1, “Treatment with VB-201” (Vascular Biogenics Ltd., priority 2010, published 2013)
